Experimental data taken from paper PMC11784183, “Identification of an antibiotic from an HTS targeting EF-Tu:tRNA interaction: a prospective topical treatment for MRSA skin infections” (Applied and Environmental Microbiology, 2024).

Tested on: S. aureus USA300 subcutaneous infection
Experiment: Mouse skin infection model, topical ointment
Assay type: in vivo, mice
Details: topical ointment daily

C/C(=C\C(=O)OCCCCCCCCC(=O)O)C[C@@H]1OC[C@H](C[C@@H]2O[C@H]2[C@@H](C)[C@H](C)O)[C@@H](O)[C@H]1O [mupirocin, reference compound]
dermonecrosis as a result of S. aureus infection (area over time) (5 days, vs untreated control (ointment without drug)): not having a significant effect on dermonecrosis | bacterial burden in punch biopsies (day 5, vs untreated control): significantly reduced the bacterial burden
